# Laboratory results published in patent publication US9718821B2, “Pyridopyrimidinone inhibitors of kinases” (AbbVie Inc., priority 2012, dated 2017).
# Molecular target: T1, GST-tagged-Wee1 kinase (Homo sapiens, UniProt P30291)
# T1 construct: purchased Carnabio 05-177
# Assay: Wee1 time-resolved fluorescence equilibrium binding assay (displacement of Oregon Green-labeled ATP-competitive kinase probe)
# Conditions: enzyme binding data; GST-tagged-Wee1 kinase 2 nM, fluorescent probe 300 nM, inhibitor 0.003 to 10 micromolar, 1 hour incubation; read-out: Wee-1 binding (Ki nM)
# Method in brief: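 Competitive TR-fluorescence equilibrium binding with GST-Wee1; inhibitors displace a rapidly reversible Oregon Green-labelled ATP-competitive probe. Ki values derived from probe displacement.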
# T1 sequence (P30291 whole entry): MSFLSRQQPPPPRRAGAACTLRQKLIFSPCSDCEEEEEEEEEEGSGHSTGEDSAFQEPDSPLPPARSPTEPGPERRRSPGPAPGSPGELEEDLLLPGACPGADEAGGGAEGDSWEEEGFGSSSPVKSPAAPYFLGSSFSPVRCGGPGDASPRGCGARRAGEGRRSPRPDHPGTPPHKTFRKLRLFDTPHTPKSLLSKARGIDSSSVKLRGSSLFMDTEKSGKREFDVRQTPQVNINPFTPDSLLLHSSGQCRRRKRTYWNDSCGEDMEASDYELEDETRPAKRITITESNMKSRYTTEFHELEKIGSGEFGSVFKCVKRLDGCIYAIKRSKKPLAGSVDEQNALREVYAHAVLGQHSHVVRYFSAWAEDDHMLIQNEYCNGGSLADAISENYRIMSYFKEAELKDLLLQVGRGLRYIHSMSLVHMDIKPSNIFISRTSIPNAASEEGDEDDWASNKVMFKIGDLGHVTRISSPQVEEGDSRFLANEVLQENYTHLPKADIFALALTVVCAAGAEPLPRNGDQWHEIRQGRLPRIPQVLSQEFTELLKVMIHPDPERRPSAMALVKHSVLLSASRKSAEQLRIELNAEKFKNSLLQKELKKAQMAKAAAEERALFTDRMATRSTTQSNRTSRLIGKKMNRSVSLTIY
row,Ki [nM],SMILES
1,2.1,"Cc1cccc(C)c1-n1cc(C)c2nc(Nc3ccc(N4CCN(CCCN(C)C)CC4)cc3)ncc2c1=O [Example 139, 2-[(4-{4-[3-(dimethylamino)propyl]piperazin-1-yl}phenyl)amino]-6-(2,6-dimethylphenyl)-8-methylpyrido[4,3-d]pyrimidin-5(6H)-one]"
2,0.2,"CN(C)CCCN1CCN(c2ccc(Nc3ncc4c(=O)n(-c5c(Cl)cccc5Cl)cc(CF)c4n3)cc2)CC1 [Example 140, 6-(2,6-dichlorophenyl)-2-[(4-{4-[3-(dimethylamino)propyl]piperazin-1-yl}phenyl)amino]-8-(fluoromethyl)pyrido[4,3-d]pyrimidin-5(6H)-one]"
3,1,"Cc1cn(-c2c(Cl)cccc2Cl)c(=O)c2cnc(Nc3ccc4c(c3)CN(CCN(C)C)C4)nc12 [Example 141, 6-(2,6-dichlorophenyl)-2-({2-[2-(dimethylamino)ethyl]-2,3-dihydro-1H-isoindol-5-yl}amino)-8-methylpyrido[4,3-d]pyrimidin-5(6H)-one]"
